Experimental data: article PMC9519446, “Discovery of an Orally Active Benzoxaborole Prodrug Effective in the Treatment of Chagas Disease in Non-human Primates” (Nature microbiology, 2022)
Several values for one entry are separate records, joined by “and”; a condition that tells them apart may be missing. Identical values can stand only once.

Assay: NHP health screening: hematology (CBC)
Type: in vivo, rhesus macaques (Macaca mulatta)
[1] = Mean of treated female rhesus macaques, blood sample of 2018-03-26/27
[2] = Treated rhesus macaques, individual animal, blood sample of 2018-03-26/27
[3] = drug-treatment phase, returned to pre-study values by the final blood draw
[4] = treated female macaques, mid-dosing bleed, Mean
[5] = treated female macaques, post-dosing bleed, Mean

Method: Under light-anesthesia/sedation, peripheral blood samples were collected from each animal prior to treatment and at 7 time points following. Blood analysis (CBC and serum chemistry assays) and physical exams to evaluate the health of the study animals were performed on each animal prior to the beginning of the study and also at three time points during the treatment protocol (see Supplementary data).

## Cc1c(C(=O)N[C@H](C(=O)OCC2CCOCC2)C(C)C)ccc2c1B(O)OC2 [AN15368]
[1]
  Baso, Mean: 0.01 10^3/µL
  Eos, Mean: 0.09056 10^3/µL
  Hct, Mean: 42.7278%
  Hgb, Mean: 13.2278 G/Dl
  Lymp, Mean: 2.112 10^3/µL
  Mch, Mean: 22.4444 Pgs
  Mchc, Mean: 30.9611 G/Dl
  Mcv, Mean: 72.4667 fL
  Mono, Mean: 0.2806 10^3/µL
  Mpv, Mean: 7.333 fL
  Neut, Mean: 3.369 10^3/µL
  Plt, Mean: 334.722 10^3/µL
  Rbc, Mean: 5.902 10^6/µL
  Rdw, Mean: 12.2111%
  Wbc, Mean: 5.862 10^3/µL
[2]
  Baso: 0.01 10^3/µL and 0 10^3/µL
  Eos: 0.24 10^3/µL and 0.09 10^3/µL and 0.02 10^3/µL and 0.17 10^3/µL and 0.16 10^3/µL
  Hct: 46.5% and 43.6% and 38.8% and 40.8% and 41.6%
  Hgb: 14.6 G/Dl and 13 G/Dl and 11.7 G/Dl and 13.1 G/Dl
  Lymp: 2.42 10^3/µL and 2.63 10^3/µL and 1.31 10^3/µL and 3.46 10^3/µL and 2.68 10^3/µL
  Mch: 21.8 Pgs and 21.4 Pgs and 21.5 Pgs and 22.2 Pgs and 22.8 Pgs
  Mchc: 31.4 G/Dl and 29.8 G/Dl and 30.2 G/Dl and 32.1 G/Dl and 31.5 G/Dl
  Mcv: 69.6 fL and 71.6 fL and 71.5 fL and 69.4 fL and 72.5 fL
  Mono: 0.38 10^3/µL and 0.28 10^3/µL and 0.1 10^3/µL and 0.31 10^3/µL
  Mpv: 7.6 fL and 6.9 fL and 7.2 fL and 6.4 fL
  Neut: 3.03 10^3/µL and 1.68 10^3/µL and 2.26 10^3/µL and 1.88 10^3/µL and 0.86 10^3/µL
  Plt: 347 10^3/µL and 388 10^3/µL and 304 10^3/µL and 339 10^3/µL and 367 10^3/µL
  Rbc: 6.68 10^6/µL and 6.09 10^6/µL and 5.43 10^6/µL and 5.88 10^6/µL and 5.74 10^6/µL
  Rdw: 11.4% and 12.7% and 10.8% and 12.3% and 12.2%
  Wbc: 6.07 10^3/µL and 4.69 10^3/µL and 3.69 10^3/µL and 5.83 10^3/µL and 3.99 10^3/µL
[3]
  lymphocytes in the blood: mildly elevated
  monocytes in the blood: mildly elevated
[4]
  Baso: 0.01333 10^3/µL
  Eos: 0.09889 10^3/µL
  Hct: 41.4111%
  Hgb: 13.2333 G/Dl
  Lymp: 3.343 10^3/µL
  Mch: 23.5333 Pgs
  Mchc: 31.9611 G/Dl
  Mcv: 73.75 fL
  Mono: 0.2572 10^3/µL
  Mpv: 7.506 fL
  Neut: 2.007 10^3/µL
  Plt: 319.5 10^3/µL
  Rbc: 5.621 10^6/µL
  Rdw: 12.4556%
  Wbc: 5.718 10^3/µL
[5]
  Baso: 0.01167 10^3/µL
  Eos: 0.09 10^3/µL
  Hct: 40.5389%
  Hgb: 13.0722 G/Dl
  Lymp: 2.497 10^3/µL
  Mch: 23.6944 Pgs
  Mchc: 32.2333 G/Dl
